Assay results from US8487137B2, “Photochemical crosslinkers for polymer coatings and substrate tie-layer” (Innovative Surface Technologies, LLC, priority 2005, dated 2013).

Experiments:
[1] = Solubility of crosslinker in common solvents and water; assay type: physicochemical; settings: chloroform, methylene chloride, acetone, ethyl acetate, isopropanol, etc.
Source text: The peaks at d 7.78 ppm (m, 12H), 7.46 ppm (m, 9H), 6.98 ppm (m, 6H) were the typical signals from 4-substituted benzophenone. The peak at d 4.35 ppm (m, 6H) was assigned to the protons of methylene connected to phenoxy group. The peak at d 4.13 ppm (m, 9H) was a combination of 6 protons of 3 methylene groups connected to nitrogen atom and 3 protons from 3 methine groups. The peak at d 3.00 ppm (s, 3H) corresponded to hydroxyl groups.
The peaks at 7.49˜7.79 ppm (m, 18H) were the typical signals from 4-substituted benzophenone. The peak at 4.66 ppm (s, 4H) was assigned to the protons of methylene connected to benzophenone group. The peak at 3.70 ppm (m, 16H) corresponded to ethylene groups.
The peaks at 7.26˜7.79 ppm (m, 18H) were the typical signals from 4-substituted benzophenone. The peak at 4.64 ppm (s, 4H) was assigned to the protons of methylene connected to benzophenone group. The peak at 3.66 ppm (m, 24H) corresponded to ethylene groups.

[2] = Static contact angle with water on coated PVC coverslips (goniometer); assay type: physicochemical
Protocol: A coating solution was made up from the crude glycol linker product isolated in Example 3 (0.5 mg/ml glycol in isopropanol with 50 mg/ml polyvinylpyrrolidone (Kollidon K30, BASF, N.J.)). 100 μl of the coating solution was applied to PVC coverslips (Fisher Scientific, Pittsburgh, Pa.) and allowed to dry overnight. All pieces were illuminated for a set time in a uv crosslinker (UVP CL-1000, Upland, Calif., 254 nm light, 120,000 μJ/cm^2) from 0 to 10 minutes. Pieces were then rinsed for 30 minutes in deionized water with gentle agitation. The static contact angle with water was taken on a goniometer (MicroVu 400, Santa Ana, Calif.), three 3 μl drops of water were measured, three times apiece. Contact angles are shown below.
A coating solution of purified triazine crosslinker isolated in Example 1 was made by adding 44 mg of crosslinker to 1 ml of acetone, diluted with 19 ml of isopropanol, then adding 1000 mg of poly(vinylpyrrolidone) (PVP) (Kollidon K30, BASF, N.J.). The resulting solution was thoroughly mixed on an orbital shaker for four hours. 18 samples were prepared by adding 100, 200, or 500 μl of coating solution onto PVC Coverslips (Fisher Scientific, Pittsburgh, Pa.) (n=6 for each condition), then air drying. The sample pieces were illuminated for five minutes in a uv chamber (UVP CL-1000, Upland, Calif., 254 nm light, 120,000 μJ/cm^2), then rinsed for four hours in deionized water with gentle agitation. 4 pieces of each variable were then stained with Congo red dye to determine the presence of PVP. For each coating condition, two of the four stained pieces were then rubbed with a wet glove to determine durability of the coating to simple rubbing. The remaining two unstained sample pieces for each coating condition were then assessed for static contact angle by threefold measurement of three 3 μl drops of water on a goniometer (MicroVu 400, Santa Ana, Calif.).

O=C(c1ccccc1)c1ccc(OCC(O)Cn2c(=O)n(CC(O)COc3ccc(C(=O)c4ccccc4)cc3)c(=O)n(CC(O)COc3ccc(C(=O)c4ccccc4)cc3)c2=O)cc1 (stereo not shown) [Example 1]
solubility in most common solvents [1]: soluble in most common solvents | Contact angle (rinse only) ([2]; triazine crosslinker/PVP K30, Coating 100 ml): 35.3 ± 3.4 | Contact angle (rinse only) ([2]; triazine crosslinker/PVP K30, Coating 200 ml): 38.7 ± 2.6 | Contact angle (rinse only) ([2]; triazine crosslinker/PVP K30, Coating 500 ml): 29.2 ± 2.2
